Type in all cases: functional, cell-based
Data set [1] concerns the target T1, Solute carrier organic anion transporter family member 1A1 (Rattus norvegicus, UniProt P46720).
T1 sequence (P46720 whole entry): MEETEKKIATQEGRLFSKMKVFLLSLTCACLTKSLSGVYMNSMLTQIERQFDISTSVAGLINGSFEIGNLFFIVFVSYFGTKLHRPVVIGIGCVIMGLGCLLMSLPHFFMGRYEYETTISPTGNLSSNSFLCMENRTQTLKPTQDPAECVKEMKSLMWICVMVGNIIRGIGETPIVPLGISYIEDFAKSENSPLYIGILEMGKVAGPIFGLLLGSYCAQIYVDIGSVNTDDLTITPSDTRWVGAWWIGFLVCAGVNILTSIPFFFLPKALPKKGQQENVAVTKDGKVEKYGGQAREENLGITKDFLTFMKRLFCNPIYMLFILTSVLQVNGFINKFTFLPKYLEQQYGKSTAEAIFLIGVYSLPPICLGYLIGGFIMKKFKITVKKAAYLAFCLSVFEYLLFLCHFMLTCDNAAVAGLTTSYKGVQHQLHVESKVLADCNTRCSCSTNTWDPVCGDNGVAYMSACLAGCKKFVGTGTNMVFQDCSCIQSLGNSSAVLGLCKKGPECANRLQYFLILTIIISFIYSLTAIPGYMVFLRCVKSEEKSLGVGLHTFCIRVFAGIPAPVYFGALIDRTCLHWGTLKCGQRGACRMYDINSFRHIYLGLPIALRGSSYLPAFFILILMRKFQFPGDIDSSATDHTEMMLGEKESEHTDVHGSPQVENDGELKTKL
Briefly: TP_TRANSPORTER: uptake of Tauro-23-norcholate at 20 u M in Oatp1-expressing HeLa cells. The note with it: human, 20 µM.

In data set [2] the target is T1, Solute carrier organic anion transporter family member 1A1. Briefly: TP_TRANSPORTER: uptake of 23-Nor-cholate at 20 u M in Oatp1-expressing HeLa cells. The note with it: human, 20 µM.
The target is the same in data set [3]. Kind of data set: TP_TRANSPORTER: uptake of Glyco-23-norcholate at 20 uM in Oatp1-expressing HeLa cells. Conditions: human.
Data set [4] has the same target. Kind of data set: TP_TRANSPORTER: uptake of Chenodeoxycholate at 20 uM in Oatp1-expressing HeLa cells. Conditions: human.
The target is the same in data set [5]. Kind of data set: TP_TRANSPORTER: uptake of Deoxycholate at 1 uM in Oatp1-expressing HeLa cells. The note with it: human.
Data set [6] concerns the target T2, Hepatic sodium/bile acid cotransporter (Rattus norvegicus, UniProt P26435).
T2 sequence (P26435 whole entry): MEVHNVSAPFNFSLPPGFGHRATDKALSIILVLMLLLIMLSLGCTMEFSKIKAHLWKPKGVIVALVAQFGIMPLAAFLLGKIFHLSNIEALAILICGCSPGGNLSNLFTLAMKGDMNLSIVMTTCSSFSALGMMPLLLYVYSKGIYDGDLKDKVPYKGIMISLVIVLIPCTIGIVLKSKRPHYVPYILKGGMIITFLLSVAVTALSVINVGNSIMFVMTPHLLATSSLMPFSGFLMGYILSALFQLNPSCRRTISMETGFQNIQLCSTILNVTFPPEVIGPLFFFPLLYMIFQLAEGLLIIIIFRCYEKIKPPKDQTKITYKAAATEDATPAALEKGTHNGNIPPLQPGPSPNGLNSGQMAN
Briefly: TP_TRANSPORTER: uptake of Deoxycholate at a concentration of 1 u M in NTCP-expressing HeLa cells. The note with it: human, 1 µM.

Data set [7] addresses T1, Solute carrier organic anion transporter family member 1A1. Briefly: TP_TRANSPORTER: uptake of Glycochenodeoxycholate at 20 uM in Oatp1-expressing HeLa cells. The note with it: human.
For data set [8] the target is unchanged. Kind of data set: TP_TRANSPORTER: uptake of Glycocholate at 4 u M in Oatp1-expressing HeLa cells. The note with it: human, 4 µM.
Data set [9] concerns the target T2, Hepatic sodium/bile acid cotransporter. Kind of data set: TP_TRANSPORTER: uptake of Glycocholate at a concentration of 4 u M in NTCP-expressing HeLa cells. Conditions: human, 4 µM.
The target in data set [10] is T1, Solute carrier organic anion transporter family member 1A1. Briefly: TP_TRANSPORTER: uptake of Glycocholate at 20 u M in Oatp1-expressing HeLa cells. The note with it: human, 20 µM.
Data set [11] shares this target. Briefly: TP_TRANSPORTER: uptake of Glycotrihydroxycoprostanoic acid at 20 u M in Oatp1-expressing HeLa cells. Conditions: human, 20 µM.
For data set [12] the target is unchanged. Briefly: TP_TRANSPORTER: uptake of Glycoursodeoxycholate at 20 u M in Oatp1-expressing HeLa cells. Conditions: human, 20 µM.
Data set [13] addresses T2, Hepatic sodium/bile acid cotransporter. Kind of data set: TP_TRANSPORTER: uptake of Hyodeoxycholate at a concentration of 1 u M in NTCP-expressing HeLa cells. The note with it: human, 1 µM.
Data set [14] shares this target. Kind of data set: TP_TRANSPORTER: uptake of Lagodeoxycholate at a concentration of 1 u M in NTCP-expressing HeLa cells. The note with it: human, 1 µM.
For data set [15], the target named is T1, Solute carrier organic anion transporter family member 1A1. Kind of data set: TP_TRANSPORTER: uptake of Lagodeoxycholate at 1 uM in Oatp1-expressing HeLa cells. Conditions: human.
Data set [16] shares this target. Kind of data set: TP_TRANSPORTER: uptake of Muricholate at 1 u M in Oatp1-expressing HeLa cells. The note with it: human, 1 µM.
The target in data set [17] is T2, Hepatic sodium/bile acid cotransporter. Kind of data set: TP_TRANSPORTER: uptake of Muricholate at a concentration of 1 u M in NTCP-expressing HeLa cells. The note with it: human, 1 µM.
The target in data set [18] is T1, Solute carrier organic anion transporter family member 1A1. Briefly: TP_TRANSPORTER: uptake of Bromosulfophthalein at 1 u M in Oatp1-expressing HeLa cells. Conditions: human, 1 µM.
For data set [19] the target is unchanged. Kind of data set: TP_TRANSPORTER: uptake of Taurochenodeoxycholate at 20 u M in Oatp1-expressing HeLa cells. The note with it: human, 20 µM.
For data set [20] the target is unchanged. Kind of data set: TP_TRANSPORTER: uptake of Taurolagodeoxycholate at 1 u M in Oatp1-expressing HeLa cells. Conditions: human, 1 µM.
Data set [21] has as its target T2, Hepatic sodium/bile acid cotransporter. Kind of data set: TP_TRANSPORTER: uptake of Taurolagodeoxycholate at a concentration of 1 u M in NTCP-expressing HeLa cells. The note with it: human, 1 µM.
Data set [22] concerns the target T1, Solute carrier organic anion transporter family member 1A1. Briefly: TP_TRANSPORTER: uptake of Tauromurocholate at 1 u M in Oatp1-expressing HeLa cells. The note with it: human, 1 µM.
Data set [23] deals with T2, Hepatic sodium/bile acid cotransporter. Kind of data set: TP_TRANSPORTER: uptake of Tauromurocholate at a concentration of 1 u M in NTCP-expressing HeLa cells. Conditions: human, 1 µM.
For data set [24], the target named is T1, Solute carrier organic anion transporter family member 1A1. Briefly: TP_TRANSPORTER: uptake of Taurotrihydroxycoprostanoic acid at 20 u M in Oatp1-expressing HeLa cells. The note with it: human, 20 µM.
Data set [25] shares this target. Briefly: TP_TRANSPORTER: uptake of Tauroursodeoxycholate at 20 u M in Oatp1-expressing HeLa cells. The note with it: human, 20 µM.
For data set [26] the target is unchanged. Briefly: TP_TRANSPORTER: uptake of Trihydroxycoprostanoic acid at 20 uM in Oatp1-expressing HeLa cells. Conditions: human.
Data set [27] has the same target. Kind of data set: TP_TRANSPORTER: uptake of Ursodeoxycholate at 20 uM in Oatp1-expressing HeLa cells. Conditions: human.

SMILES strings stand for the structures.

The results in this text go back to ChEMBL document CHEMBL2074029, “Substrate specificities of rat oatp1 and ntcp: implications for hepatic organic anion uptake” (Am J Physiol Gastrointest Liver Physiol, 2003).

With `C[C@H](CC(=O)NCCS(=O)(=O)O)[C@H]1CC[C@H]2[C@@H]3[C@H](O)C[C@@H]4C[C@H](O)CC[C@]4(C)[C@H]3C[C@H](O)[C@]12C`, in data set [1], the Activity result is “substrate [+]”. Take `C[C@H](CC(=O)O)[C@H]1CC[C@H]2[C@@H]3[C@H](O)C[C@@H]4C[C@H](O)CC[C@]4(C)[C@H]3C[C@H](O)[C@]12C`: the Activity entry in data set [2] is “substrate [+]”. For the molecule `C[C@H](CC(=O)NCC(=O)O)[C@H]1CC[C@H]2[C@@H]3[C@H](O)C[C@@H]4C[C@H](O)CC[C@]4(C)[C@H]3C[C@H](O)[C@]12C`, in [3], the Activity entry is “is not a substrate [-]”. Turning to `C[C@H](CCC(=O)O)[C@H]1CC[C@H]2[C@@H]3[C@H](O)C[C@@H]4C[C@H](O)CC[C@]4(C)[C@H]3CC[C@]12C` [CHENODIOL], in [4], the Activity entry was “is not a substrate [-]”. For `C[C@H](CCC(=O)O)[C@H]1CC[C@H]2[C@@H]3CC[C@@H]4C[C@H](O)CC[C@]4(C)[C@H]3C[C@H](O)[C@]12C` [DEOXYCHOLIC ACID], the Activity entry in data set [5] and in [6] was “is not a substrate [-]” each time. On to `C[C@H](CCC(=O)NCC(=O)O)[C@H]1CC[C@H]2[C@@H]3[C@H](O)C[C@@H]4C[C@H](O)CC[C@]4(C)[C@H]3CC[C@]12C` [GLYCOCHENODEOXYCHOLATE], for which the Activity entry in [7] was “is not a substrate [-]”. With `C[C@H](CCC(=O)NCC(=O)O)[C@H]1CC[C@H]2[C@@H]3[C@H](O)C[C@@H]4C[C@H](O)CC[C@]4(C)[C@H]3C[C@H](O)[C@]12C` [GLYCOCHOLIC ACID], the Activity entry in [8], in [9] and in data set [10] was “substrate [+]” in each case. For `CC(CC(=O)NCC(=O)O)[C@H]1CC[C@@H]2C1[C@@H](O)C[C@@H]1C3CC[C@@H](O)CC3C[C@@H](O)[C@H]12` (some centres not stated) [GLYCOTRIHYDROXYCOPROSTANOIC ACID], the Activity result in data set [11] was “substrate [+]”.

Turning to `C[C@H](CCC(=O)NCC(=O)O)[C@H]1CC[C@H]2[C@@H]3[C@@H](O)C[C@@H]4C[C@H](O)CC[C@]4(C)[C@H]3CC[C@]12C` [GLYCOURSODEOXYCHOLIC ACID], the Activity result in data set [12] was “substrate [+]”.

For the molecule `C[C@H](CCC(=O)O)[C@H]1CC[C@H]2[C@@H]3C[C@H](O)[C@@H]4C[C@H](O)CC[C@]4(C)[C@H]3CC[C@]12C` [HYODEOXYCHOLIC_ACID], in data set [13], the Activity result was “is not a substrate [-]”. In the case of `C[C@H](CCC(=O)O)[C@H]1CC[C@H]2[C@@H]3CC[C@@H]4C[C@H](O)CC[C@]4(C)[C@H]3C[C@@H](O)[C@]12C` [LAGODEOXYCHOLATE], the Activity result in data set [14] and in data set [15] was “is not a substrate [-]” in each case. `C[C@H](CCC(=O)O)C1CC[C@H]2[C@@H]3C(O)C(O)C4C[C@H](O)CC[C@]4(C)[C@H]3CC[C@]12C` (some centres not stated) [MURICHOLATE]: the Activity result in data set [16] and in data set [17] was “substrate [+]” each time. Take `O=C1OC(c2ccc(O)c(S(=O)(=O)[O-])c2)(c2ccc(O)c(S(=O)(=O)[O-])c2)c2c(Br)c(Br)c(Br)c(Br)c21.[Na+].[Na+]` [SULFOBROMOPHTHALEIN SODIUM]: in data set [18], the Activity result was “substrate [+]”.

Turning to `C[C@H](CCC(=O)NCCS(=O)(=O)O)[C@H]1CC[C@H]2[C@@H]3[C@H](O)C[C@@H]4C[C@H](O)CC[C@]4(C)[C@H]3CC[C@]12C` [TAUROCHENODEOXYCHOLATE], the Activity result in data set [19] is “substrate [+]”. In the case of `C[C@H](CCC(=O)NCCS(=O)(=O)O)[C@H]1CC[C@H]2[C@@H]3CC[C@H]4C[C@H](O)CC[C@]4(C)[C@H]3C[C@@H](O)[C@]12C` [TAUROLAGODEOXYCHOLATE], the Activity entry in [20] and in data set [21] was “substrate [+]” each time. On to `C[C@H](CCC(=O)NCCS(=O)(=O)O)[C@H]1CC[C@H]2[C@@H]3C[C@@H](O)[C@@H]4C[C@H](O)CC[C@]4(C)[C@H]3CC[C@]12C` [TAUROMUROCHOLATE], for which the Activity entry in [22] and in [23] was “substrate [+]” each time. Consider `CC(CCC[C@@H](C)C1CC[C@H]2[C@@H]3[C@H](O)C[C@]4(C(=O)O)C[C@H](O)CC[C@]4(C)[C@H]3C[C@H](O)[C@]12C)C(=O)NCCS(=O)(=O)O` (some centres not stated) [TAUROTRIHYDROXYCOPROSTANOIC ACID], for which the Activity result in [24] was “substrate [+]”.

`C[C@H](CCC(=O)NCCS(=O)(=O)O)[C@H]1CC[C@H]2[C@@H]3[C@@H](O)C[C@@H]4C[C@H](O)CC[C@]4(C)[C@H]3CC[C@]12C` [TAURURSODIOL]: the Activity result in [25] was “substrate [+]”. With `CC(C)CCC[C@@H](C)C1CC[C@H]2[C@@H]3[C@H](O)C[C@]4(C(=O)O)C[C@H](O)CC[C@]4(C)[C@H]3C[C@H](O)[C@]12C` (some centres not stated) [TRIHYDROXYCOPROSTANOIC ACID], the Activity entry in data set [26] is “is not a substrate [-]”.

Take `C[C@H](CCC(=O)O)[C@H]1CC[C@H]2[C@@H]3[C@@H](O)C[C@@H]4C[C@H](O)CC[C@]4(C)[C@H]3CC[C@]12C` [URSODIOL]: the Activity result in data set [27] is “is not a substrate [-]”.
